Source: ChEMBL document CHEMBL4507296 (2021)

Columns and labels:
[1] = target: MTNR1B (Cricetulus griseus) (UniProt G3H6N9); test: Melatonin 2 (hamster) CEREP ligand profiling; settings: Compound concentration 10.0 uM
[2] = tested on: Tyrosine-protein kinase ABL1 (Homo sapiens), P00519 [Q252H]; settings: Compound concentration 1000.0 nM
[3] = target: 5'-AMP-activated protein kinase catalytic subunit alpha-1 (Homo sapiens) (UniProt Q13131); settings: Compound concentration 1000.0 nM
[4] = target: NUAK family SNF1-like kinase 1 (Homo sapiens) (UniProt O60285); settings: Compound concentration 1000.0 nM
Chain of NUAK family SNF1-like kinase 1 (Homo sapiens) (O60285 whole entry): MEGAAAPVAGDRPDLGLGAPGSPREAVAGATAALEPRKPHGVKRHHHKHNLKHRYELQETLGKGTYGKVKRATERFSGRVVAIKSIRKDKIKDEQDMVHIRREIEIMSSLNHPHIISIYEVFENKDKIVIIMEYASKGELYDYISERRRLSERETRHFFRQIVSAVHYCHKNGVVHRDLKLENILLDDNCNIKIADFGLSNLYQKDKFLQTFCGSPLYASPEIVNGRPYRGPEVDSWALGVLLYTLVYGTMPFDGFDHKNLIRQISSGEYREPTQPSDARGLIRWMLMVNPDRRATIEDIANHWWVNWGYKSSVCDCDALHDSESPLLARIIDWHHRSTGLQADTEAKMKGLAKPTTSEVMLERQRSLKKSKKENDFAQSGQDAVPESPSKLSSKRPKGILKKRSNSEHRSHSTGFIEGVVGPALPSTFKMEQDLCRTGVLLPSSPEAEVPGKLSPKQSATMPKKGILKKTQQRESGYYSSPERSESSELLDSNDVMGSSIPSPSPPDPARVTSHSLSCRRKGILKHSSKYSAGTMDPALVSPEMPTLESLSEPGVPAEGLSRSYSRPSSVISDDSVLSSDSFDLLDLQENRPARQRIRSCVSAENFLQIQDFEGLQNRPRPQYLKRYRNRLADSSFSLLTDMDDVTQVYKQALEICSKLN

[5] = target: Cyclin-dependent kinase 2 (Homo sapiens) (UniProt P24941); settings: Compound concentration 1000.0 nM
[6] = target: Cyclin-dependent kinase 5 (Homo sapiens) (UniProt Q00535); settings: Compound concentration 1000.0 nM
[7] = target: Macrophage colony-stimulating factor 1 receptor (Homo sapiens) (UniProt P07333); settings: Compound concentration 1000.0 nM
[8] = target: Mitogen-activated protein kinase kinase kinase 12 (Homo sapiens) (UniProt Q12852); settings: Compound concentration 1000.0 nM
[9] = tested on: Epidermal growth factor receptor (Homo sapiens), P00533 [UNDEFINED MUTATION]; settings: Compound concentration 1000.0 nM
[10] = tested on: Epidermal growth factor receptor (Homo sapiens), P00533 [L858R,T790M]; settings: Compound concentration 1000.0 nM
[11] = tested on: eIF-2-alpha kinase GCN2 (Homo sapiens), Q9P2K8 [S808G]; settings: Compound concentration 1000.0 nM
Chain of eIF-2-alpha kinase GCN2 (Homo sapiens), Q9P2K8 [S808G] (Q9P2K8 whole entry S808G): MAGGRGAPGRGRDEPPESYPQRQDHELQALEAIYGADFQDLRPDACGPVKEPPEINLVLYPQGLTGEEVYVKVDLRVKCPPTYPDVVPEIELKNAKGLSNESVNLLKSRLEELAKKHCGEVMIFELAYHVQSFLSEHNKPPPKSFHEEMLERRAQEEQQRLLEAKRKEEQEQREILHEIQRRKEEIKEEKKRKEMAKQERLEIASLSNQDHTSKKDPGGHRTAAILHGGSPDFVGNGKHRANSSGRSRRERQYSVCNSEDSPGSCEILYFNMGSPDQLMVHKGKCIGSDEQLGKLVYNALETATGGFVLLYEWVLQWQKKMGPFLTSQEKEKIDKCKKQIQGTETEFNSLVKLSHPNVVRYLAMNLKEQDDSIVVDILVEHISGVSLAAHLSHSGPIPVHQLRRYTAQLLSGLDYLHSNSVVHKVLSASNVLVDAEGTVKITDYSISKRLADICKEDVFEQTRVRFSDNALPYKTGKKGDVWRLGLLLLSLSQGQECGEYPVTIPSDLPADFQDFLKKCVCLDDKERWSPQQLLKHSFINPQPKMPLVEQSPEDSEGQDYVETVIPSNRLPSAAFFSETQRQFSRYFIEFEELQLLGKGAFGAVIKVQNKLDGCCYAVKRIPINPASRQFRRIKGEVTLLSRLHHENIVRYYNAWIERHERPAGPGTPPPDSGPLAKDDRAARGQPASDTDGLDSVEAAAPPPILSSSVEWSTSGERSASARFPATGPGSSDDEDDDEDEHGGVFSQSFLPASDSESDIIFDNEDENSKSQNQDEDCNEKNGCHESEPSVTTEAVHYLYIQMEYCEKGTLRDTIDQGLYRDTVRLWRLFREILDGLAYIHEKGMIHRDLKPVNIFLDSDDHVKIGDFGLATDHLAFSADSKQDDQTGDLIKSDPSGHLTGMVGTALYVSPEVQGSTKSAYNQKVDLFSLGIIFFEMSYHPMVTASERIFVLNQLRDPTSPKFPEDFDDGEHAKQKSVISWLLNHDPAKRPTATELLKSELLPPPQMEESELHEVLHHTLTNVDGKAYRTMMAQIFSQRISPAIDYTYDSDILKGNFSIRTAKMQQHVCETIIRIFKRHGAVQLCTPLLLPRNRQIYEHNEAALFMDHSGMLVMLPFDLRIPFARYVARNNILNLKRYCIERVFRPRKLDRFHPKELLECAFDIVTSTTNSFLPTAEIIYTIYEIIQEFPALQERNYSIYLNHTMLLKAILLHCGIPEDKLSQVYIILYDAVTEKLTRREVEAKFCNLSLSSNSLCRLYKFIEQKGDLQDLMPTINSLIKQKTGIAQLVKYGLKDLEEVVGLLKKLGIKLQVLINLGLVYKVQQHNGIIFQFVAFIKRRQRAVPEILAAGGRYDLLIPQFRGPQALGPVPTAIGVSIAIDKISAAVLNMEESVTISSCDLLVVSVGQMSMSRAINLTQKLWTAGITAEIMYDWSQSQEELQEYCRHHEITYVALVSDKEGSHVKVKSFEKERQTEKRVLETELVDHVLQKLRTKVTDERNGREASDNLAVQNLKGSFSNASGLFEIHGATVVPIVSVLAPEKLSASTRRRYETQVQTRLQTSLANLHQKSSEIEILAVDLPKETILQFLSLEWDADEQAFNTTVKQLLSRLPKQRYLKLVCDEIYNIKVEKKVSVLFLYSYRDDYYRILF

[12] = target: Mitogen-activated protein kinase kinase kinase kinase 1 (Homo sapiens) (UniProt Q92918); settings: Compound concentration 1000.0 nM
[13] = target: Insulin-like growth factor 1 receptor (Homo sapiens) (UniProt P08069); settings: Compound concentration 1000.0 nM
[14] = target: Inhibitor of nuclear factor kappa-B kinase subunit epsilon (Homo sapiens) (UniProt Q14164); settings: Compound concentration 1000.0 nM
[15] = target: Tyrosine-protein kinase JAK1 (Homo sapiens) (UniProt P23458); settings: Compound concentration 1000.0 nM
Chain of Tyrosine-protein kinase JAK1 (Homo sapiens) (P23458 whole entry): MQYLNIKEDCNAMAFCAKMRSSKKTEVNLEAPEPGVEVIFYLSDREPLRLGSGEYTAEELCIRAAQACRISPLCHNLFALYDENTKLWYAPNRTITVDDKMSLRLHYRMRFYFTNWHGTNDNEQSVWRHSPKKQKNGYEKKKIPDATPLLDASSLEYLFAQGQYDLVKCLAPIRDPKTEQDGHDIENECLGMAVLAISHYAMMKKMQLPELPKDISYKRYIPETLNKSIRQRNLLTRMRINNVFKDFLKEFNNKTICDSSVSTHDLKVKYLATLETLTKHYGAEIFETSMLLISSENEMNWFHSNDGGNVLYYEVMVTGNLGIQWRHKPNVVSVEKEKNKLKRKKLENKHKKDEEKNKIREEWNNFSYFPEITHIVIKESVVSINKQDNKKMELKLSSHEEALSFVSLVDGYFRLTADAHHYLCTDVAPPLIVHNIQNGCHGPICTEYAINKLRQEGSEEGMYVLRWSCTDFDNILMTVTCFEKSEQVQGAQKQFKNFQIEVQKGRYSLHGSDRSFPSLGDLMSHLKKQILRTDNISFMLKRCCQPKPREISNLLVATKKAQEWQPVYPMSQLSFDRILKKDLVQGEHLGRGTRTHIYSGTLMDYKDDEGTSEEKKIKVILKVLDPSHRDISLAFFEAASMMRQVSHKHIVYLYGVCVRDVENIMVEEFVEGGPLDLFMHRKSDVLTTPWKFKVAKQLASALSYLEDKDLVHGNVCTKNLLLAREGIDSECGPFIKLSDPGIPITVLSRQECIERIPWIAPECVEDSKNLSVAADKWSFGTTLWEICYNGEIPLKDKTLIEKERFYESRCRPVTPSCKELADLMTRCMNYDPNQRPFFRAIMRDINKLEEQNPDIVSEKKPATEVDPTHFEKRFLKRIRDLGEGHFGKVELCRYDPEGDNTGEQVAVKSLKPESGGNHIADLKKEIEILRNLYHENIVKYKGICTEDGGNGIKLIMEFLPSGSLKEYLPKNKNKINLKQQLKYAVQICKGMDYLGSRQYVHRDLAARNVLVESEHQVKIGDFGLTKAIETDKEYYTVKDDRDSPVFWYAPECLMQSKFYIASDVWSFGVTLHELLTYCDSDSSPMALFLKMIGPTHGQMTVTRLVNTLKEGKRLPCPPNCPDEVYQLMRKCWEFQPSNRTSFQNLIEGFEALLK

[16] = target: Mitogen-activated protein kinase 10 (Homo sapiens) (UniProt P53779); settings: Compound concentration 1000.0 nM
[17] = target: MAP kinase-activated protein kinase 5 (Homo sapiens) (UniProt Q8IW41); settings: Compound concentration 1000.0 nM
[18] = target: MAP/microtubule affinity-regulating kinase 4 (Homo sapiens) (UniProt Q96L34); settings: Compound concentration 1000.0 nM
[19] = target: Dual specificity mitogen-activated protein kinase kinase 1 (Homo sapiens) (UniProt Q02750); settings: Compound concentration 1000.0 nM
[20] = target: Dual specificity mitogen-activated protein kinase kinase 4 (Homo sapiens) (UniProt P45985); settings: Compound concentration 1000.0 nM
Chain of Dual specificity mitogen-activated protein kinase kinase 4 (Homo sapiens) (P45985 whole entry): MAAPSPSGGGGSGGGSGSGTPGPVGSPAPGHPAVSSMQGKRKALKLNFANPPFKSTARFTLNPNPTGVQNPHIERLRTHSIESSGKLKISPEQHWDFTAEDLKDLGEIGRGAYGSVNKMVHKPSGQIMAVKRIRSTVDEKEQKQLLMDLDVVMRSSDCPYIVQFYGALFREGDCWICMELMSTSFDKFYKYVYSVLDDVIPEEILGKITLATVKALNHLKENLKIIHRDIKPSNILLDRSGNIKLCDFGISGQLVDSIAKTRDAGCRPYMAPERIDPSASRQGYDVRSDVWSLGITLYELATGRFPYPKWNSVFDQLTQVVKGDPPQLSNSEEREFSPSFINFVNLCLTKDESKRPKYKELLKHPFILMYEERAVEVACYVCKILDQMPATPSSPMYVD

[21] = target: Dual specificity mitogen-activated protein kinase kinase 6 (Homo sapiens) (UniProt P52564); settings: Compound concentration 1000.0 nM
[22] = target: Serine/threonine-protein kinase Nek11 (Homo sapiens) (UniProt Q8NG66); settings: Compound concentration 1000.0 nM
[23] = target: Mitogen-activated protein kinase 14 (Homo sapiens) (UniProt Q16539); settings: Compound concentration 1000.0 nM
[24] = target: Mitogen-activated protein kinase 11 (Homo sapiens) (UniProt Q15759); settings: Compound concentration 1000.0 nM
[25] = target: Cyclin-dependent kinase 2 homolog (Plasmodium falciparum (isolate 3D7)) (UniProt P61075); settings: Compound concentration 1000.0 nM
[26] = target: Phosphatidylinositol 3-kinase C2 domain-containing subunit gamma (Homo sapiens) (UniProt O75747); settings: Compound concentration 1000.0 nM
[27] = tested on: Phosphatidylinositol 4,5-bisphosphate 3-kinase catalytic subunit alpha isoform (Homo sapiens), P42336 [I800L]; settings: Compound concentration 1000.0 nM
[28] = target: Serine/threonine-protein kinase pim-2 (Homo sapiens) (UniProt Q9P1W9); settings: Compound concentration 1000.0 nM
[29] = target: Phosphatidylinositol 4-phosphate 5-kinase type-1 alpha (Homo sapiens) (UniProt Q99755); settings: Compound concentration 1000.0 nM
[30] = target: Membrane-associated tyrosine- and threonine-specific cdc2-inhibitory kinase (Homo sapiens) (UniProt Q99640); settings: Compound concentration 1000.0 nM
[31] = target: Serine/threonine-protein kinase N2 (Homo sapiens) (UniProt Q16513); settings: Compound concentration 1000.0 nM
Chain of Serine/threonine-protein kinase N2 (Homo sapiens) (Q16513 whole entry, looked up): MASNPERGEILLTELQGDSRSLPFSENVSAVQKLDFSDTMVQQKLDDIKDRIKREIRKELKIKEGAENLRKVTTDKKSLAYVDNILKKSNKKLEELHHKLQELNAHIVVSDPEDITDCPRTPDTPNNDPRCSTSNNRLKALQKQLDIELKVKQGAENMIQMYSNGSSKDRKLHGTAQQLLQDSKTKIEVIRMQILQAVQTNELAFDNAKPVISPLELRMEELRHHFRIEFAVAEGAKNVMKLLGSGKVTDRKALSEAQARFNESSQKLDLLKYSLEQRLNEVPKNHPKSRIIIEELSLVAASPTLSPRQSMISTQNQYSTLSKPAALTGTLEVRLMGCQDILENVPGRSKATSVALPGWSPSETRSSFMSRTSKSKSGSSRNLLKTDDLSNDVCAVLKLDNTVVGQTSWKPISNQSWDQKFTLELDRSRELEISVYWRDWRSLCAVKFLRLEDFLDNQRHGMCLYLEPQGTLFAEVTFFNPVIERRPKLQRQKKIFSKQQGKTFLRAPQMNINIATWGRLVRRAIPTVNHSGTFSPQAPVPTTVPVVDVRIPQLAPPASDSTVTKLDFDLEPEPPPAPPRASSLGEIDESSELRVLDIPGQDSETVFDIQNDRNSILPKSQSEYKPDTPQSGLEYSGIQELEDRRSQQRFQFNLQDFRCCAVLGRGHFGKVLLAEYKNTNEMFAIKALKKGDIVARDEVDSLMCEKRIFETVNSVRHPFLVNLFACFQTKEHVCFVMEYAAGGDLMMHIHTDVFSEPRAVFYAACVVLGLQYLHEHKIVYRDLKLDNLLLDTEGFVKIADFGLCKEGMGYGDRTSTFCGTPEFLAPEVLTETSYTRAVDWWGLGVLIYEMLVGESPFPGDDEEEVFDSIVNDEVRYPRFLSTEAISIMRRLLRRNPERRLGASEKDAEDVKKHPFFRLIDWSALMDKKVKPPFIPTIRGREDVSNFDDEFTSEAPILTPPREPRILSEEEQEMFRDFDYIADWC

[32] = target: RAF proto-oncogene serine/threonine-protein kinase (Homo sapiens) (UniProt P04049); settings: Compound concentration 1000.0 nM
[33] = target: Serine/threonine-protein kinase SBK1 (Homo sapiens) (UniProt Q52WX2); settings: Compound concentration 1000.0 nM
[34] = target: SRSF protein kinase 2 (Homo sapiens) (UniProt P78362); settings: Compound concentration 1000.0 nM
[35] = target: Serine/threonine-protein kinase TBK1 (Homo sapiens) (UniProt Q9UHD2); settings: Compound concentration 1000.0 nM
[36] = target: Tyrosine-protein kinase TXK (Homo sapiens) (UniProt P42681); settings: Compound concentration 1000.0 nM
[37] = target: Serine/threonine-protein kinase WNK1 (Homo sapiens) (UniProt Q9H4A3); settings: Compound concentration 1000.0 nM
[38] = target: Histamine H2 receptor (Homo sapiens) (UniProt P25021); settings: Compound concentration 10.0 uM

C[C@H](c1ccc(F)cc1)N(Cc1cccc(C(=O)O)c1)C(=O)c1cnc2ccccc2c1 [PF-05105679]
inhibition [1]: 32%
residual activity [2]: 90%
residual activity [3]: 100%
residual activity [4]: 100%
residual activity [5]: 100%
residual activity [6]: 100%
residual activity [7]: 65%
residual activity [8]: 100%
residual activity [9]: 100%
residual activity [10]: 96%
residual activity [11]: 100%
residual activity [12]: 100%
residual activity [13]: 100%
residual activity [14]: 79%
residual activity [15]: 100%
residual activity [16]: 82%
residual activity [17]: 96%
residual activity [18]: 100%
residual activity [19]: 100%
residual activity [20]: 100%
residual activity [21]: 100%
residual activity [22]: 82%
residual activity [23]: 0%
residual activity [24]: 100%
residual activity [25]: 100%
residual activity [26]: 100%
residual activity [27]: 61%
residual activity [28]: 100%
residual activity [29]: 100%
residual activity [30]: 68%
residual activity [31]: 86%
residual activity [32]: 100%
residual activity [33]: 92%
residual activity [34]: 98%
residual activity [35]: 91%
residual activity [36]: 100%
residual activity [37]: 100%
inhibition [38]: -1.14%
